Assay results reported in a melting point compilation (Tetko et al.; mined from patent text by program, amines drawn as free bases though some values may be those of a salt).
Residues, ends and D or L forms follow the SMILES beside them. *: point of attachment. Cbz = O=C(OCc1ccccc1)*

Row | Compound | melting point [°C]
1 | N#Cc1ccc(Oc2ccc(-c3ccc(Oc4ccc(C#N)c(C#N)c4)cc3)cc2)cc1C#N | 230 to 232
2 | O=C(O)c1cn(C2CC2)c(-c2ccc3c(c2)OCO3)cc1=O | 211 to 212
3 | O=C(c1ccccc1)c1c(O)c(=O)ccn1CCO | 195 to 200
4 | CCOC(=O)Nc1csc2cc(O)ccc12 | 159 to 160
5 | O=[N+]([O-])c1ccc(O)c(Cn2c(=S)sc3ccccc32)c1 | 231
6 | COC(=O)c1ccc(O)cc1NC(=O)c1ccc(C(C)(C)C)cc1 | 146 to 148
7 | O=CN1CCN(c2ccc3cc(F)ccc3n2)CC1 | 110 to 111
8 | N#Cc1c(Nc2cccc(Cl)c2)nn(Cc2ccccc2)c1N | 234 to 236
9 | Cn1cnc2ccnc(Cl)c21 | 62 to 65
10 | CCCCCCCCCCOc1ccc(CC(=O)OC)cc1 | 42 to 44
11 | N#CCC(=O)Nc1cc(Cl)c(Cl)cc1[N+](=O)[O-] | 156 to 158
12 | CS(=O)(=O)c1cccc(-n2c(=O)c(CCCc3ccncc3)cc3cccnc32)c1 | 127 to 131
13 | C=C(C)C(=O)Oc1ccc2ccc(O)c(-n3nc4ccccc4n3)c2c1 | 167 to 168
14 | COc1cccc(-c2nn(-c3ccccc3)c(-c3cccc(OC)c3)c2CC(=O)O)c1 | 129 to 131
15 | CCCCCC(=O)n1c(=O)n(-c2ccc(OC)cc2)c(=O)n1C(=O)CCCCC | 88 to 90
16 | Cc1nc(N)nc(N)c1I | 154 to 156
17 | NS(=O)(=O)c1ccsc1 | 187 to 190
18 | O=C(NCC1(O)CCCCCC1)c1cc(-c2ccc(Cl)c(C(=O)O)n2)ccc1Cl | 146 to 149
19 | CC(=NNc1ccc(-c2ccc(=O)n(C)n2)cc1)c1ccc(O)cc1O | 263 to 268
20 | CN(C)C(=O)CCc1cc(-c2ccncc2)sc1-c1ccncc1 | 166 to 167
21 | CNC(=O)c1cc(Oc2ccc(NC(=O)Nc3ccc(Br)c(C(F)(F)F)c3)cc2)ccn1 | 203 to 205
22 | CCOC(=O)c1csc(/C=C/c2cccc(NC(=O)Cc3ccccc3C(=O)O)c2)n1 | 221 to 223
23 | COC(=O)C(CC(C)C)NC(=O)C(CC(N)=O)NC(=O)OCc1ccccc1 (stereo not drawn) (Cbz-Asn-Leu-OMe; configuration not given here) | 191 to 193
24 | CCC12CCC3C4CCC(OC)=CC4=CCC3C1C(OC(C)=O)CC2=O (stereo unspecified) | 190
25 | COC(=O)C=Cc1ccc(OCC(C)NCC(O)c2cccc(Cl)c2)cc1 (stereo unspecified) | 97 to 103
26 | CCc1c(Oc2cnc(N)nc2N)cc(C)c2sccc12 | 181

Row | Compound | melting point [°C]
27 | Oc1ccc2nc(-c3cccc4c(O)cccc34)oc2c1 | 240 to 242
28 | COc1nnc(C)c(-c2ccc(SC)cn2)c1-c1ncc(Cl)cc1Cl | 147 to 149
29 | CC1C(=O)N(c2ccc3c(c2)OCO3)C(=S)N1c1ccc(Oc2ccccc2)cc1 (stereo unspecified) | 185
30 | CC(C)(C)OC(=O)NC1CN(c2c(F)cc3c(=O)c(C(=O)O)cn(C4CC4)c3c2Cl)CC12CC2 (stereo unspecified) | 205 to 207
31 | COc1cc2ccn3c(=O)c(C(=O)O)cnc3c2cc1OC | 298 to 301
32 | COC(=O)C(C)n1nnc2ccc(O)cc21 (stereo unspecified) | 132 to 134
33 | CCc1cc(NCc2ccc(-c3ccccc3-c3nnn[nH]3)cc2)n2ncc(Cl)c2n1 | 136 to 138
34 | Nc1c(NCCCO)c(=O)c1=O | 256 to 258
35 | CC(/C=C/C(=O)N1CCCc2cc3c(cc21)C(C)(C)CCC3(C)C)=C\C(=O)O | 225 to 227
36 | CC(CC(=O)NO)c1cccc(Nc2ccccc2-c2n[nH]c(=S)o2)c1Cl (stereo unspecified) | 205 to 207
37 | CC1(C2CCCC2)Cc2cc(OC3=C(O)C(=O)NC3=O)c(Cl)c(Cl)c2C1=O (stereo unspecified) | 181 to 183
38 | CCO/C(=C(/Oc1ccc(-c2ccc(Cl)cc2)cc1)n1ccnc1)C(C)(C)C | 112 to 113
39 | Cc1cc2c([C@@H]3C[C@H]3CNC(=O)c3ccccc3)cccn2n1 (relative stereo) | 112 to 113
40 | O=C(Oc1ccccc1)C(=O)Oc1ccccc1 | 132 to 135
41 | CN(C(=O)OC(C)(C)C)[C@H]1CCN(C(=O)c2ccc(-c3[nH]nc4c3C(=O)c3c(NC(=O)NN5CCOCC5)cccc3-4)s2)C1 | > 300
42 | O=C1CCC(c2ccc(F)c(F)c2)CC1 | 61
43 | Cc1ccc(Nc2ccccc2[N+](=O)[O-])c(C#N)c1 | 135 to 139
44 | O=C(CCCCC(=O)Oc1cc(O)cc(O)c1)Oc1cc(O)cc(O)c1 | 251 to 255
45 | CN(C)C=Nc1ccc(I)cc1C#N | 53 to 55
46 | OC(CCc1ccc2c(c1)OCO2)C1CC1 (stereo unspecified) | 64 to 65
47 | Cc1ccc(N=c2ccn3ccccc3c2)cc1C | 185 to 187
48 | CCCCc1nn(-c2cc([N+](=O)[O-])ccc2Cl)c(C(N)=O)c1Cc1ccc(Br)cc1F | 145 to 147
49 | O=C(Cn1nnnc1-c1ccsc1)OCCCCCO | 39 to 42
50 | COc1cc(C[NH+]([O-])C(=O)C(F)(F)F)ccn1 (stereo unspecified) | 176 to 178
51 | CC(=O)OCC(=O)C1(O)CCC2C3CCC4=CC(=O)CCC4(C)C3CCC21C (stereo unspecified) | 236
